According to paper PMC5104425, “A Novel Selective Inhibitor of Delta-5 Desaturase Lowers Insulin Resistance and Reduces Body Weight in Diet-Induced Obese C57BL/6J Mice” (PLoS ONE, 2016):

Assays:
[1] = test system: DIO mice; assay: Anti-obesity effects in DIO mice, 6-week treatment (HFD D12492): BW, calorie intake, observations; type: in vivo, C57BL/6J mice
Description: In this report, we performed 3 independent studies in DIO mice to characterize anti-obesity effects of our D5D specific inhibitor. Male C57BL/6J mice were obtained from Charles River Laboratories (Yokohama, Japan) or CLEA Japan (Osaka, Japan). The mice were fed a laboratory chow and water ad libitum and housed in a 12-h light/dark cycle. Compound or vehicle was administered once daily between 15: 00–19:00 by oral gavage. Body weight (BW) and food intake were monitored throughout the experiment.
Mice were fed a high-fat diet (HFD) that has 60% kcal from fat and contains 0.09% (w/w) AA (D12492; Research diets, Inc., see S1 Table for fatty acid profile) from 5 weeks of age, and they were divided into 5 groups (7 animals per group) at 11 weeks of age based on BW and daily food intake. In this experiment, 30 mg/kg sibutramine, a […], was used as a positive control for anti-obesity effects. Mice were orally administered compound-326 at doses of 0.1, 1, and 10 mg/kg, sibutramine at a dose of 30 mg/kg, or vehicle for 6 weeks. After 6 weeks, blood concentrations of DGLA and AA under non-fasting condition were evaluated as pharmacodynamics (PD) markers, and oral glucose tolerance test (OGTT) was performed.

[2] = test system: epididymal fat of DIO mice; assay: Satellite DIO mice, day 32: epididymal fat gene expression and BW; type: in vivo, C57BL/6J mice; conditions: 10 mg/kg, 32 days
Excerpt: Total RNA was extracted and purified using RNeasy Mini Kit (QIAGEN, USA). First-strand cDNA was synthesized using High Capacity cDNA Reverse Transcription Kits (Thermo Fisher, USA). The mRNA levels were quantified by an ABI Prism 7900 TaqMan PCR system (Thermo Fisher, USA) according to the manufacturer’s instruction using TaqMan® Universal PCR Mastermix with the primer-probe sets of TaqMan Gene Expression Assays (Thermo Fisher, USA) for the following genes: Ccl2 (chemokine (C-C motif) ligand 2; Mm99999056_m1), Cd68 (CD68 antigen; Mm03047343_m1), Adgre1 (adhesion G protein-coupled receptor E1; Mm00802529_m1), Tnf (tumor necrosis factor; Mm00443258_m1), Il6 (interleukin 6; Mm99999064), Lep (leptin; Mm00434759_m1), Adipoq (adiponectin; Mm00456425_m1), Fads2 ([…]; Mm00517221_m1), Fads1 ([…]; Mm00507605_m1), Ucp1 (uncoupling protein 1; Mm00494069_m1), Elovl3 (elongation of very long chain fatty acids 3; Mm00468164_m1), Cidea (cell death-inducing DNA fragmentation factor, alpha subunit-like effector A; Mm00432554_m1), Otop1 (otopetrin 1; Mm00554705_m1), and Rplp0 (ribosomal protein, large, P0; forward; 5'-[…]-3', reverse; 5'-[…]-3', probe (VIC-5'→3'-TAMRA); 5'-[…]-3'). The Rplp0 mRNA level was used as a reference and relative transcript levels were calculated with the comparative Ct method (2^-ΔΔCT) (Applied Bio-systems).
In 6 weeks administration study of compound-326 (10 mg/kg), satellite animals were prepared to evaluate the gene expression levels in epididymal fat at the intermediate point (day 32). Mice fed a HFD (D12079B; Research diets, Inc.) from 5 weeks of age were divided into 2 groups at the age of 8 weeks (11 animals per group), and were administered 10 mg/kg compound-326 or vehicle for 32 days. After the treatment period, mice were sacrificed and epididymal fat were harvested for mRNA analysis. […] (B) RT-qPCR was performed in epididymal fat tissue after 32 days treatment. Data are expressed as mean ± SE (n=11). *p≤ 0.05 vs. DIO vehicle by Aspin-Welch test. ¶¶p≤ 0.01 vs. DIO vehicle by Student's t-test.

[3] = target: T1, human D5D (Homo sapiens, UniProt O60427); assay: In vitro cell-based assay for desaturase activity (HepG2), D5D
T1 construct: endogenous in cells; host or cells: HepG2
T1 sequence (O60427 whole entry): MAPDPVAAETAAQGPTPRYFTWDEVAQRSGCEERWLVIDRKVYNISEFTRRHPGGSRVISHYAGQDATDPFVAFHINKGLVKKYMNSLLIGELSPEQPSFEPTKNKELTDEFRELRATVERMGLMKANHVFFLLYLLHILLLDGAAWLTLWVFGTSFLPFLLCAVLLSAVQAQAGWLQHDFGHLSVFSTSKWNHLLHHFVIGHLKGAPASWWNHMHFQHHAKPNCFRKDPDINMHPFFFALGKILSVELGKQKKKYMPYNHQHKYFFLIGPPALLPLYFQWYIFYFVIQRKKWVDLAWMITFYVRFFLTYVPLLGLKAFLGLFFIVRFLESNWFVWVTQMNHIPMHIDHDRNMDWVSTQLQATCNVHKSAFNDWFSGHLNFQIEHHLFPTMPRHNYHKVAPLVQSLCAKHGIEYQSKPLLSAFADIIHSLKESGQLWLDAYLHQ
Description: HepG2 cells were seeded in 96-well cell culture plates at 100 000 cells/well and incubated overnight in DMEM supplemented with 10% fetal bovine serum, 100 U/mL penicillin, and 100 μg/mL streptomycin in 5% CO2 at 37°C. The cells were washed twice with 200 μL of PBS and incubated with the test compounds in DMEM with 0.1% fatty acid free BSA for 30 min. Then, 0.1 μCi/well of [^14C]-labeled DGLA, linoleic acid, and stearic acid (ARC, St. Louis, MO) were added for each desaturase assay. After incubation for 3 h at 37°C, the cells were washed 3 times with 200 μL of PBS to remove [^14C]-labeled substrates in the medium and 0.63 N of NaOH was added to saponify fatty acids. Radioactive substrates and products were extracted, separated, and analyzed using the method as described above.

O=C1Cc2c(nc(OCC(F)(F)C(F)(F)F)n(-c3ccc(OCC(F)(F)F)cc3)c2=O)N1 [Compound-326, 2-(2,2,3,3,3-Pentafluoropropoxy)-3-[4-(2,2,2-trifluoroethoxy)phenyl]-5,7-dihydro-3H-pyrrolo[2,3-d]pyrimidine-4,6-dione]
BW ([1]; compound-326 10 mg/kg p.o. once daily, 6 weeks): gradual decrease in BW
abnormal findings such as behavioral changes, diarrhea, or steatorrhea ([1]; compound-326 0.1-10 mg/kg p.o., 6 weeks): No abnormal findings
daily calorie intake ([1]; compound-326 at all doses (0.1, 1, 10 mg/kg), slight decrease at 10 mg/kg): not altered significantly
BW ([1]; compound-326 lower doses (0.1 and 1 mg/kg) p.o., 6 weeks): not effective
Adgre1 gene expression level in epididymal fat [2]: significantly decreased
BW [2]: no significant BW loss
Ccl2 gene expression level in epididymal fat [2]: significantly decreased
Cd68 gene expression level in epididymal fat [2]: significantly decreased
Il6 gene expression level in epididymal fat [2]: significantly decreased
IC50 [3]: 22 nM
